Test results taken from ChEMBL document CHEMBL5291721, “A preclinical secondary pharmacology resource illuminates target-adverse drug reaction associations of marketed drugs” (Nat Commun, 2023).

Tests used:
[1] = target: Neuronal acetylcholine receptor subunit alpha-4 (Homo sapiens, UniProt P43681)
[2] = target: Beta-1 adrenergic receptor (Homo sapiens, UniProt P08588); format: functional
[3] = target: T1, 5-hydroxytryptamine receptor 2C (Homo sapiens, UniProt P28335)
T1 sequence (P28335 whole entry): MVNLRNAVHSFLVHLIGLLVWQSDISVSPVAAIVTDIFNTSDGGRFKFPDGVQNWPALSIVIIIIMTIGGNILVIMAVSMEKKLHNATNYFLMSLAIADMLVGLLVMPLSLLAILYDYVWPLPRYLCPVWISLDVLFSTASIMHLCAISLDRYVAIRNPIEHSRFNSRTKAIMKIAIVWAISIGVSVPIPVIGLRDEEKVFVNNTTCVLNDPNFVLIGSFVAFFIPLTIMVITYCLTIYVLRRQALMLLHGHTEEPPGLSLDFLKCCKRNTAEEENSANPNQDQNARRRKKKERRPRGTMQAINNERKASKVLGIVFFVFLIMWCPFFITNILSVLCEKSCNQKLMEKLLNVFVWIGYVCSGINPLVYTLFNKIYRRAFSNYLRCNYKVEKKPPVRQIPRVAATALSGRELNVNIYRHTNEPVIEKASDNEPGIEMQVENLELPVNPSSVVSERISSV

[4] = target: T2, Neuropeptide Y receptor type 1 (Homo sapiens, UniProt P25929)
T2 sequence (P25929 whole entry): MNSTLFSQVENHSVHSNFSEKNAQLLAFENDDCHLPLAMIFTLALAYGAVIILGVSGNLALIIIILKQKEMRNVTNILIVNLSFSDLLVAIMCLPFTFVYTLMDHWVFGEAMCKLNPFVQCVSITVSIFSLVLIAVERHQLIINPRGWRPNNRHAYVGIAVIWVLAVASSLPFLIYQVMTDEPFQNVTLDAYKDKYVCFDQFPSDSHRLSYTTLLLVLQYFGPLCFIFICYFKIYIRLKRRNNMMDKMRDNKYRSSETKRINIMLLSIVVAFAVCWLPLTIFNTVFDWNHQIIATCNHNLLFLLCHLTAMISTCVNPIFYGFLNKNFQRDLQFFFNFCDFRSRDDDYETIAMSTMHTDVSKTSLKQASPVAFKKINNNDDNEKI

[5] = target: Adenosine receptor A2a (Homo sapiens, UniProt P29274)
Sequence of Adenosine receptor A2a (P29274 whole entry): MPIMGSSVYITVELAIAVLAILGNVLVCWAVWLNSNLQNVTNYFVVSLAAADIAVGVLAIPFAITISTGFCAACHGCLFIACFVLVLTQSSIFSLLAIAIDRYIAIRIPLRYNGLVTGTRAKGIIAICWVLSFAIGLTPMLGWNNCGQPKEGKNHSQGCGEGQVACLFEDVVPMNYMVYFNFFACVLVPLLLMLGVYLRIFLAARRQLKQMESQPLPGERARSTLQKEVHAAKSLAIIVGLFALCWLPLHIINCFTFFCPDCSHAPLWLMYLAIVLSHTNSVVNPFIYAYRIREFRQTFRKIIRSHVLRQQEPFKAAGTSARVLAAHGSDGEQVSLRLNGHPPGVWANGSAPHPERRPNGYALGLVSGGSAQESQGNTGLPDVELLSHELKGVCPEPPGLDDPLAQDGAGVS

[6] = target: Glutamate receptor ionotropic, NMDA 1 (Rattus norvegicus, UniProt P35439)
[7] = target: Motilin receptor (Homo sapiens, UniProt O43193)
Sequence of Motilin receptor (O43193 whole entry): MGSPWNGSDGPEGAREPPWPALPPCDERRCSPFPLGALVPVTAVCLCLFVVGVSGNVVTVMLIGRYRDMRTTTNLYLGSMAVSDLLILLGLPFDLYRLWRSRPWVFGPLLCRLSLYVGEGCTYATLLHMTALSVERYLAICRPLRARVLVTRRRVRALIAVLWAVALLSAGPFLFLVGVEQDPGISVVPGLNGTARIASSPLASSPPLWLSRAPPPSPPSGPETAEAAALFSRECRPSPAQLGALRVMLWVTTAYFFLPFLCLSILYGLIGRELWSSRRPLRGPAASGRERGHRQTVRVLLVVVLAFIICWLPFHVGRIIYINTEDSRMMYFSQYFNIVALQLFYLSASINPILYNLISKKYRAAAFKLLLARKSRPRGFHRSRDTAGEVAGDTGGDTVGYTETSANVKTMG

[8] = target: Sodium-dependent noradrenaline transporter (Homo sapiens, UniProt P23975)
Sequence of Sodium-dependent noradrenaline transporter (P23975 whole entry): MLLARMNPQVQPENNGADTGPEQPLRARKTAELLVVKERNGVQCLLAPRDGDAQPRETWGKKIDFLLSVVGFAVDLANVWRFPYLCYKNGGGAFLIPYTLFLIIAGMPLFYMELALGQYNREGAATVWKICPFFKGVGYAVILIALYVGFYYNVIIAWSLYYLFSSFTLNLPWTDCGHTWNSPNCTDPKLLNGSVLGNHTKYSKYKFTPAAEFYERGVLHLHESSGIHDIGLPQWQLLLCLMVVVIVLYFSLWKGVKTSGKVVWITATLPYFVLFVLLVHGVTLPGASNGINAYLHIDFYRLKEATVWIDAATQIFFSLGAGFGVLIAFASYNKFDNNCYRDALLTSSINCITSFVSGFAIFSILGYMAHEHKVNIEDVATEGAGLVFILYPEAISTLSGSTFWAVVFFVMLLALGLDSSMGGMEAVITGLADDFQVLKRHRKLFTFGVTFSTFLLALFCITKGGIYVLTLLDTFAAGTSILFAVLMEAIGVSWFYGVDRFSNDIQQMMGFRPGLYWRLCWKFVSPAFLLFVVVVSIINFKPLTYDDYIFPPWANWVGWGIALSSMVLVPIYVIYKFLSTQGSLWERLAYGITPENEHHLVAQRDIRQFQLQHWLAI

[9] = target: 3',5'-cyclic-AMP phosphodiesterase 4D (Homo sapiens, UniProt Q08499); format: functional
Sequence of 3',5'-cyclic-AMP phosphodiesterase 4D (Q08499 whole entry): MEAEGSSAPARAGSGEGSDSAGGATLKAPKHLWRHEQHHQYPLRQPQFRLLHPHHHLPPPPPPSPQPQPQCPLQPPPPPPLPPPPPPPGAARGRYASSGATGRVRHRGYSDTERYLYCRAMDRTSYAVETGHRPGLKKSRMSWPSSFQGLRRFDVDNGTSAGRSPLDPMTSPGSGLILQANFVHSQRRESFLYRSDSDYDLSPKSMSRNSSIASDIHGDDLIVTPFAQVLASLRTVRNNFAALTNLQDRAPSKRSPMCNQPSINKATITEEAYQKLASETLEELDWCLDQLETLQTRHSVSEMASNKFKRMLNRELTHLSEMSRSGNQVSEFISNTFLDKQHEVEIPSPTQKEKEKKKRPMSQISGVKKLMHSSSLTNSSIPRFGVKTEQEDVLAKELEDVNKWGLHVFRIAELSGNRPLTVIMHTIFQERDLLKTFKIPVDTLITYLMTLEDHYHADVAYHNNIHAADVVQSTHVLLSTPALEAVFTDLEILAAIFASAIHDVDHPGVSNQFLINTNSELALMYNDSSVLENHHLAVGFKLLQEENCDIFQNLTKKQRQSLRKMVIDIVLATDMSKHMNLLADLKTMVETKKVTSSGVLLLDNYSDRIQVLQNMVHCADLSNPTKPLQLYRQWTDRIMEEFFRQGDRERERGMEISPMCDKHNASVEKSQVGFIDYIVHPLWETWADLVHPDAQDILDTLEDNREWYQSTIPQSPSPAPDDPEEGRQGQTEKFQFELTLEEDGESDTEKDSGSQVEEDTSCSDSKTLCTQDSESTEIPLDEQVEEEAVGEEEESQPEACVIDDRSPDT

[10] = target: cGMP-inhibited 3',5'-cyclic phosphodiesterase 3A (Homo sapiens, UniProt Q14432); format: functional
[11] = target: T3, Prostaglandin G/H synthase 1 (Rattus norvegicus, UniProt Q63921); format: functional
T3 sequence (Q63921 whole entry): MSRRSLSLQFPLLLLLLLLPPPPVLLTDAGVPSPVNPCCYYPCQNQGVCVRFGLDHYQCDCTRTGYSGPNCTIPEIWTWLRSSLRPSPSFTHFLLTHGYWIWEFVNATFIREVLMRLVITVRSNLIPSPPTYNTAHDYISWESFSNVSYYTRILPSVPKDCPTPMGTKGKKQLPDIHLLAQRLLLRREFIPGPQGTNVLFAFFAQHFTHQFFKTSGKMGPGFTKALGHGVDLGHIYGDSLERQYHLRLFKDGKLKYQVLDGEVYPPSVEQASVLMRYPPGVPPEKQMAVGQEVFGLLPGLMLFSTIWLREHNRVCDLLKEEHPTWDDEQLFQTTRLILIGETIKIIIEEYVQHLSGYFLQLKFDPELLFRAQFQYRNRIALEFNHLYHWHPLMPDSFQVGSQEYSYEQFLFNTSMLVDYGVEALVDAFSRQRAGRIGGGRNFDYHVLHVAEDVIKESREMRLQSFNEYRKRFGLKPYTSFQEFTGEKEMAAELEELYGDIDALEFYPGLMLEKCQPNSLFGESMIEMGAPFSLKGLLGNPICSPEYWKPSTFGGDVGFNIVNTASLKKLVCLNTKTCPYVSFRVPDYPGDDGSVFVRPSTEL

[12] = target: T4, Muscarinic acetylcholine receptor M2 (Homo sapiens, UniProt P08172); format: functional, cell-based
T4 sequence (P08172 whole entry): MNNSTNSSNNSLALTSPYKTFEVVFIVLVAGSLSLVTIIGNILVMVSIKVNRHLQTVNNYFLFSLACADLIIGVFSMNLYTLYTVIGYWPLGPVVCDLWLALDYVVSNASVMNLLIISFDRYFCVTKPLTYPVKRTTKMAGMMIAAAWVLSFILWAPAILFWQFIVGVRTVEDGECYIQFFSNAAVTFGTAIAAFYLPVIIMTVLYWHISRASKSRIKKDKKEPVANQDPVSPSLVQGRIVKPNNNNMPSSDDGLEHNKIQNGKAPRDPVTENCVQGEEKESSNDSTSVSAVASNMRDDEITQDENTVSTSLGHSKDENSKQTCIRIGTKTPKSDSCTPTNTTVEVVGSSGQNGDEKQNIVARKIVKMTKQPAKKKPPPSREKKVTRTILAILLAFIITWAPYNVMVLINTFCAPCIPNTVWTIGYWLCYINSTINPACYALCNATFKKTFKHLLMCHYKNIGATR

[13] = target: 5-hydroxytryptamine receptor 2A (Homo sapiens, UniProt P28223); format: functional, cell-based
Sequence of 5-hydroxytryptamine receptor 2A (P28223 whole entry): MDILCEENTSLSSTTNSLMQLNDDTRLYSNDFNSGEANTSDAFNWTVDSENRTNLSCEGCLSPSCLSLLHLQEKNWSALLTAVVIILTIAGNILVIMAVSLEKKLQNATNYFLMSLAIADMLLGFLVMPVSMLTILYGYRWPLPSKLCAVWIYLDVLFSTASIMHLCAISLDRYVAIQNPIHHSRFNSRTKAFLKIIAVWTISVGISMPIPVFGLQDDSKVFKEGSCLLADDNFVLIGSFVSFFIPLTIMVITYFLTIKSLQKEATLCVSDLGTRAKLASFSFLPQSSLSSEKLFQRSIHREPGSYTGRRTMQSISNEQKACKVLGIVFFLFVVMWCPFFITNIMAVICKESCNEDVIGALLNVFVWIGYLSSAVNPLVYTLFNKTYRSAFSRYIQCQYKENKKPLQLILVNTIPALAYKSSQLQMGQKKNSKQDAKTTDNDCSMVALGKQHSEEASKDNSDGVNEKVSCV

[14] = target: Vasopressin V1a receptor (Homo sapiens, UniProt P37288)
Sequence of Vasopressin V1a receptor (P37288 whole entry): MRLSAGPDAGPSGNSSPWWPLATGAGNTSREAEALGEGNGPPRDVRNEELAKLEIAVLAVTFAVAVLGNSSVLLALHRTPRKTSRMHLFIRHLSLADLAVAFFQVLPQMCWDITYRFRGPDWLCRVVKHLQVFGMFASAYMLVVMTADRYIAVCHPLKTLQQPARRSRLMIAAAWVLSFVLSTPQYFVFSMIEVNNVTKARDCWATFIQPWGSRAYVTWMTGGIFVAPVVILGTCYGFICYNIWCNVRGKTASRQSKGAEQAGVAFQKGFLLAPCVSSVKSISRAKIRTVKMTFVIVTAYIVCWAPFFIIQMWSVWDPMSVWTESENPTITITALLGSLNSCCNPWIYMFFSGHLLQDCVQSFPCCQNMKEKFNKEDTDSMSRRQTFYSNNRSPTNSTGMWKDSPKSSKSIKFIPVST

[15] = target: Histamine H1 receptor (Homo sapiens, UniProt P35367)
Sequence of Histamine H1 receptor (P35367 whole entry): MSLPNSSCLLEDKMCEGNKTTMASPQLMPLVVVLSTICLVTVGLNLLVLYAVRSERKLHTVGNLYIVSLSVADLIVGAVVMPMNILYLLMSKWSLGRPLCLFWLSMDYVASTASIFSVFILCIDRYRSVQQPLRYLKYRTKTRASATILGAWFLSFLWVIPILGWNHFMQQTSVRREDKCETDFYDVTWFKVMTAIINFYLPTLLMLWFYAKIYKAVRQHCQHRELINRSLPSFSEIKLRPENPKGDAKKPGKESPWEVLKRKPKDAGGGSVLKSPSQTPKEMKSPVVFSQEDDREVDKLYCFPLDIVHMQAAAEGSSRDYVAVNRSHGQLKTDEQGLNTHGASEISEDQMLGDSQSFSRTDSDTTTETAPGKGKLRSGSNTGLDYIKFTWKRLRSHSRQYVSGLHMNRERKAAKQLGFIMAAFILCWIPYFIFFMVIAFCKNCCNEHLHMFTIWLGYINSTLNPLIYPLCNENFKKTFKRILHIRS

[16] = target: Sodium-dependent serotonin transporter (Homo sapiens, UniProt P31645)
Further: assay procedure not described here.

Sequence of Beta-1 adrenergic receptor (P08588 whole entry): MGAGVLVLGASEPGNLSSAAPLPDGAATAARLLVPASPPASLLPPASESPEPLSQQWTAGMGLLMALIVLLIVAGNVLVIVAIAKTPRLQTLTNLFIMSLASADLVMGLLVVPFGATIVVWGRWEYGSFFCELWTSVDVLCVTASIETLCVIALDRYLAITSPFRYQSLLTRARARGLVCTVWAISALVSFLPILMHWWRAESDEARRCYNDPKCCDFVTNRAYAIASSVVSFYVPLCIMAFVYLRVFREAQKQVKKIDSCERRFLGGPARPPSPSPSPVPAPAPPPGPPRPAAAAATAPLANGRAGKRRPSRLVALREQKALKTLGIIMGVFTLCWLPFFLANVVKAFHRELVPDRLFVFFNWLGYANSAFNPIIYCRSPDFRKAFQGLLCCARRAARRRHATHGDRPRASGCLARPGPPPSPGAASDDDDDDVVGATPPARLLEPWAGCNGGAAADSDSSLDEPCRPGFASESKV
Sequence of Neuronal acetylcholine receptor subunit alpha-4 (P43681 whole entry): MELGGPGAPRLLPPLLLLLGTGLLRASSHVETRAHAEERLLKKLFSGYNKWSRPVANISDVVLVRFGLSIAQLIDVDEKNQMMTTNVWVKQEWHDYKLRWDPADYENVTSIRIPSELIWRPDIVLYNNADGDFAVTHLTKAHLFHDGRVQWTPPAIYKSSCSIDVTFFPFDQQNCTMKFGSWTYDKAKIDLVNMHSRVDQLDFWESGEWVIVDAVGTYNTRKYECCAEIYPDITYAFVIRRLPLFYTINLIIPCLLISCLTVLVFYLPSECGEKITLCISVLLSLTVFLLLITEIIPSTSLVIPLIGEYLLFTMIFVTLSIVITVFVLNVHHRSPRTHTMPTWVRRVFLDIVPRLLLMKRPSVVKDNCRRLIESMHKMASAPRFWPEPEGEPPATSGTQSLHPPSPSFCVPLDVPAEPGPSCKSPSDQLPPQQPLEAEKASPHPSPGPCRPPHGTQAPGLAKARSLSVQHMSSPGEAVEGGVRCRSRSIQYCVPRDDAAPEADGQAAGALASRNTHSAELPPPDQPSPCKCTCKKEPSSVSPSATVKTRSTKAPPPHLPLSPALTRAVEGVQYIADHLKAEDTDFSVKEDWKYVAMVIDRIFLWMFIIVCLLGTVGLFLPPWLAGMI

| SMILES | AC50 [1] | AC50 [2] | AC50 [3] | AC50 [4] | AC50 [5] | AC50 [6] | AC50 [7] | AC50 [8] | AC50 [9] | AC50 [10] | AC50 [11] | AC50 [12] | AC50 [13] | AC50 [14] | AC50 [15] | AC50 [16] |
| --- | --- | --- | --- | --- | --- | --- | --- | --- | --- | --- | --- | --- | --- | --- | --- | --- |
| C#C[C@]1(O)CC[C@H]2[C@@H]3CCC4=Cc5oncc5C[C@]4(C)[C@H]3CC[C@@]21C [DANAZOL] | > 10 µM | > 10 µM | > 30 µM | > 10 µM | > 30 µM | > 10 µM | > 10 µM |  |  |  |  |  |  |  |  |  |
| CN1C(=O)OC(C)(C)C1=O [TRIMETHADIONE] | > 10 µM | > 10 µM | > 30 µM | > 10 µM | > 10 µM | > 10 µM | > 10 µM | > 10 µM | > 30 µM | > 30 µM | > 10 µM | > 10 µM |  |  |  |  |
| CCCCc1ncc(/C=C(\Cc2cccs2)C(=O)O)n1Cc1ccc(C(=O)O)cc1 [EPROSARTAN] | > 10 µM | > 10 µM | > 10 µM | > 10 µM | > 10 µM | > 10 µM | > 10 µM | > 30 µM | > 10 µM | > 10 µM | > 30 µM | > 10 µM | > 30 µM | > 30 µM | > 10 µM | > 30 µM |
| COc1ccc2c3c1O[C@H]1[C@@H](O)C=C[C@H]4[C@@H](C2)N(C)CC[C@@]341 [CODEINE] | > 10 µM | 0.9 µM | > 30 µM | > 30 µM | > 30 µM | > 10 µM | > 10 µM | > 30 µM | 7.2 µM | 3 µM | > 30 µM | > 10 µM |  | > 30 µM | > 10 µM | > 30 µM |
| CC(C)Cn1cnc2c(N)nc3ccccc3c21 [IMIQUIMOD] | > 10 µM | > 10 µM | > 30 µM | > 10 µM | 19.5 µM | > 10 µM | > 10 µM | > 30 µM | 4.03 µM | > 30 µM | > 30 µM | > 10 µM |  |  |  |  |
| C/C(O)=C(\C#N)C(=O)Nc1ccc(C(F)(F)F)cc1 [TERIFLUNOMIDE] | > 30 µM | > 30 µM | > 30 µM |  | > 30 µM |  | > 30 µM | > 30 µM | > 30 µM | > 30 µM | > 30 µM | > 30 µM | > 30 µM | > 30 µM | > 30 µM | > 30 µM |
| CCc1c(Cl)c(O)c(Cl)c(O)c1C(=O)O[C@H]1[C@H](O)[C@H](OC)[C@H](OC/C2=C\C=C\C[C@H](O)/C(C)=C/[C@H](CC)[C@@H](O[C@@H]3OC(C)(C)[C@@H](OC(=O)C(C)C)[C@H](O)[C@@H]3O)/C(C)=C/C(C)=C/C[C@@H]([C@@H](C)O)OC2=O)O[C@@H]1C [FIDAXOMICIN] | > 10 µM | > 10 µM | > 30 µM | > 30 µM | > 30 µM | > 10 µM | > 10 µM | > 30 µM | > 30 µM | > 30 µM | > 30 µM |  | > 30 µM | > 10 µM | > 30 µM | > 30 µM |
| CNS(=O)(=O)Cc1ccc2[nH]cc(CCN(C)C)c2c1 |  | > 10 µM |  | > 30 µM | > 30 µM | > 30 µM | > 10 µM | > 10 µM | > 30 µM | > 30 µM | > 30 µM | > 30 µM |  | > 10 µM |  |  |
| CC=CC(=O)N(CC)c1ccccc1C | > 10 µM | > 10 µM | > 30 µM | > 10 µM | > 10 µM | > 10 µM | > 10 µM | > 10 µM | > 30 µM | > 30 µM | > 10 µM | > 10 µM |  |  |  |  |
| N#Cc1ccc([C@H]2CCc3cncn32)c(F)c1 [OSILODROSTAT] | > 10 µM | > 10 µM | > 10 µM | > 10 µM | > 10 µM | > 10 µM | > 10 µM | > 10 µM | > 10 µM | > 10 µM |  |  |  | > 10 µM | 10 µM |  |
| CNC(C)CCC=C(C)C (stereo not drawn) [ISOMETHEPTENE] | > 30 µM | > 30 µM |  | > 30 µM | > 30 µM |  | > 30 µM | > 30 µM |  |  | > 30 µM |  |  | > 30 µM |  | > 30 µM |
| CC[C@@H]1C(=O)OC[C@@H]1Cc1cncn1C [PILOCARPINE] | > 10 µM |  | > 30 µM | > 30 µM | > 30 µM | > 10 µM | > 10 µM | > 30 µM | > 30 µM | > 30 µM | > 30 µM |  | > 30 µM | > 30 µM | > 10 µM | > 30 µM |
| CC(C)(C)c1cc(C(C)(C)C)c(NC(=O)c2c[nH]c3ccccc3c2=O)cc1O [IVACAFTOR] | > 10 µM | > 10 µM | > 30 µM | > 30 µM | > 30 µM | > 10 µM | > 10 µM | 6.5 µM | > 30 µM | > 30 µM | > 30 µM |  |  | > 30 µM | > 10 µM | > 30 µM |
| CN1CCN(CC/C=C2/c3ccccc3Sc3ccc(S(=O)(=O)N(C)C)cc32)CC1 [THIOTHIXENE] |  | > 10 µM | 2.8 µM | > 30 µM | 11.6 µM | > 10 µM | > 10 µM | > 10 µM | 4.1 µM | 11 µM | > 30 µM | > 10 µM |  | > 10 µM |  | > 10 µM |
| NCC[C@H](O)C(=O)N[C@@H]1C[C@H](N)[C@@H](O[C@H]2O[C@H](CN)[C@@H](O)[C@H](O)[C@H]2O)[C@H](O)[C@H]1O[C@H]1O[C@H](CO)[C@@H](O)[C@H](N)[C@H]1O [AMIKACIN] | > 10 µM | > 10 µM | > 30 µM | > 10 µM | > 10 µM | > 10 µM | > 10 µM | > 10 µM | > 30 µM | > 30 µM | > 10 µM | > 10 µM |  |  |  |  |
